Values after ≈ are worked out from the molar mass of the structure shown.
System: RAR receptor
Assay: Biological activity of RAR receptor antagonist / agonist type
Conditions: stated in words, no test described

Row | biological activity at RAR receptor (antagonist or agonist type) | Structure (SMILES)
1 | RAR receptor agonist type | COc1ccc(C#Cc2cc(C(=O)O)cs2)cc1C12CC3CC(CC(C3)C1)C2 [Compound 7]
2 | RAR receptor antagonist type | COc1cccc(C=CC#Cc2ccc(C(=O)O)cc2)c1-c1ccc(C)cc1 [Compound 3, 4-[4-(6-Methoxy-4′-methylbiphenyl-2-yl)but-3-en-1-ynyl]benzoic acid]

Row | Structure (SMILES) | biological activity at RAR receptor (antagonist or agonist type)
3 | O=C(O)c1ccc(-c2ccc3cc(O)c(C45CC6CC(CC(C6)C4)C5)cc3c2)cc1 [Compound 16] | RAR receptor agonist type

System: Staphylococcus aureus CIP52.1
Assay: Minimum inhibitory concentration (MIC), NCCLS dilution antimicrobial susceptibility test
Format: cell-based
Conditions: Staphylococcus aureus, CIP52, Table II, Example 1; mean of at least three tests; bacteriostatic effect; read-out: MIC RESULTS MEAN
Excerpt: The bacterium Staphylococcus aureus CIP52.1 may be used in order to determine for each test compound the minimum inhibitory concentration for the bacterium, or MIC, expressed in μM.
The technique employed to determine the minimum inhibitory concentration or MIC was that described in the publication entitled “National committee for clinical laboratory standards” Vol. 13, No. 25, December 1993; Methods for dilution antimicrobial susceptibility tests for bacteria that grow aerobically-third edition, approved standard”. This minimum inhibitory concentration gives an indication as to the bacteriostatic effect of the test compounds, i.e., the capacity of these compounds to stop the proliferation of the bacterium.
Each compound of the invention was tested at least three times. The average of the test results was calculated, along with the standard deviation. The reference compound used was gentamycin.
The technique employed to determine the MIC values was the same as that described in Example 1.
Each compound of the invention and each comparative example taken from the Pierre Fabre patent application No. FR-2,736,548 was tested at least three times. The mean of the test results was calculated, along with the standard deviation. The reference compound used was gentamycin.

Row | MIC [µM] | Structure (SMILES)
4 | 1.04 (≈ 0.383 µg/mL) | COc1cccc(C=CC#Cc2ccc(C(=O)O)cc2)c1-c1ccc(C)cc1 [Compound 3, 4-[4-(6-Methoxy-4′-methylbiphenyl-2-yl)but-3-en-1-ynyl]benzoic acid]
5 | 3.33 (≈ 1.25 µg/mL) | CC1(C)CCC(C)(C)c2cc3cc(-c4ccc(C(=O)O)c(O)c4)ccc3cc21 [Compound 28, 2-Hydroxy-4-(5,5,8,8-tetramethyl-5,6,7,8-tetrahydroanthracen-2-yl)benzoic acid]
6 | 3.33 (≈ 1.29 µg/mL) | O=C(O)c1ccc2oc(-c3ccc(O)c(C45CC6CC(CC(C6)C4)C5)c3)cc2c1 [Compound 29, 2-(3-Adamantan-1-yl-4-hydroxyphenyl)benzofuran-5-carboxylic acid]
7 | 2.5 (≈ 1.3 µg/mL) | CCCCCCCCCON=C(C(=O)Nc1ccc(C(=O)O)cc1)c1ccc2c(c1)C(C)(C)CCC2(C)C [Compound 17, 4-[2-Nonyloxyimino-2-(5,5,8,8-tetramethyl-5,6,7,8-tetrahydronaphthalen-2-yl)acetylamino]benzoic acid]
8 | 5 (≈ 1.87 µg/mL) | CC1(C)CCC(C)(C)c2cc(Oc3ccc4cc(C(N)=O)ccc4c3)ccc21 [Compound 40, 6-(5,5,8,8-Tetramethyl-5,6,7,8-tetrahydronaphthalen-2-yloxy)naphthalene-2-carboxylic acid amide]
9 | 2.5 (≈ 1.19 µg/mL) | COCCOCOc1ccc(C#Cc2ccc(C(=O)O)c(O)c2)cc1C12CC3CC(CC(C3)C1)C2 [Compound 18, 4-[3-Adamantan-1-yl-4-(2-methoxyethoxymethoxy)-phenylethynyl]-2-hydroxybenzoic acid]
10 | 2.5 (≈ 0.901 µg/mL) | CC1(C)CCC(C)(C)c2cc3cc(-c4ccc(CO)c(O)c4)ccc3cc21 [Compound 20, 2-Hydroxymethyl-5-(5,5,8,8-tetramethyl-5,6,7,8-tetrahydroanthracen-2-yl)phenol]
11 | 5 (≈ 2.46 µg/mL) | CCCCCCCON=C(C(=O)Nc1ccc(C(=O)O)cc1)c1ccc2c(c1)C(C)(C)CCC2(C)C [Compound 39, 4-[2-Heptyloxyimino-2-(5,5,8,8-tetramethyl-5,6,7,8-tetrahydronaphthalen-2-yl)acetylamino]-benzoic acid]
12 | 1.25 (≈ 0.516 µg/mL) | Cc1cc(O)c(C23CC4CC(CC(C4)C2)C3)cc1-c1ccc2cc(C(=O)O)ccc2c1 [Compound 4, 6-[2-Methyl-4-hydroxy-5-(1-adamantyl)phenyl]-2-naphthoic acid]
13 | 4.16 (≈ 2.04 µg/mL) | CCCCCCCC/C=C(\C(=O)Nc1ccc(C(=O)O)cc1)c1ccc2c(c1)C(C)(C)CCC2(C)C [Compound 36, 4-[(Z)-2-(5,6,7,8-tetrahydro-5,5,8,8-tetramethyl-2-naphthyl)-2-undecenamido]benzoic acid]
14 | 5 (≈ 2.01 µg/mL) | COc1cc(C)c(-c2cccc(C=CC(=O)O)c2)cc1C12CC3CC(CC(C3)C1)C2 [Compound 45, 3-(5′-Adamantan-1-yl-4′-methoxy-2′-methylbiphenyl-3-yl)acrylic acid]
15 | 1.66 (≈ 0.585 µg/mL) | Cc1ccc(-c2ccc(C)cc2C=CC#Cc2ccc(C(=O)O)cc2)cc1 [Compound 8, 4-[4-(4,4′-Dimethylbiphenyl-2-yl)but-3-en-1-ynyl]benzoic acid]
16 | 1.25 (≈ 0.443 µg/mL) | Cc1ccc(-c2ccccc2C=CC#Cc2ccc(C(=O)O)c(O)c2)cc1 [Compound 6, 2-Hydroxy-4-[4-(4′-methylbiphenyl-2-yl)but-3-en-1-ynyl]benzoic acid]
17 | 3.33 (≈ 1.58 µg/mL) | CCCCCCOc1ccc(C(=O)Nc2ccc(C(=O)O)cc2)cc1C12CC3CC(CC(C3)C1)C2 [Compound 26, 4-(3-Adamantan-1-yl-4-hexyloxybenzoylamino)benzoic acid]
18 | 3.33 (≈ 1.46 µg/mL) | CCCCCCCCCC(C)(C)c1cc(C(=O)Nc2ccc(C(=O)O)cc2)ccc1OC [Compound 25, 4-[3-(1,1-Dimethyldecyl)-4-methoxybenzoylamino]-benzoic acid]
19 | 2.08 (≈ 0.733 µg/mL) | Cc1ccc(-c2c(C)cccc2C=CC#Cc2ccc(C(=O)O)cc2)cc1 [Compound 12, 4-[4-(6,4′-Dimethylbiphenyl-2-yl)but-3-en-1-ynyl]benzoic acid]

Row | Structure (SMILES) | MIC [µM]
20 | CCCCOC(c1ccc2c(c1)C(C)(C)CCC2(C)C)c1ccc2cc(C(=O)O)ccc2c1 (centres unmarked) [Compound 24, 6-[Butoxy-(5,5,8,8-tetramethyl-5,6,7,8-tetrahydronaphthalen-2-yl)methyl]naphthalene-2-carboxylic acid] | 3.33 (≈ 1.48 µg/mL)

Same assay, conditions: Staphylococcus aureus, CIP52, read-out: MIC RESULTS MEAN

Row | Structure (SMILES) | MIC [µM]
21 | CC1(C)CCC(C)(C)c2cc([Se]C#Cc3ccc(C(=O)O)c(O)c3)ccc21 [Compound 42, 2-Hydroxy-4-(5,5,8,8-tetramethyl-5,6,7,8-tetrahydronaphthalen-2-ylselanylethynyl)benzoic acid] | 5 (≈ 2.14 µg/mL)
22 | Cc1cc2c(cc1[Se]C#Cc1ccc(C(=O)O)c(O)c1)C(C)(C)CCC2(C)C [Compound 22, 2-Hydroxy-4-(3,5,5,8,8-pentamethyl-5,6,7,8-tetrahydronaphthalen-2-ylselanylethynyl)benzoic acid] | 2.5 (≈ 1.1 µg/mL)
23 | Cc1cc2c(cc1[Se]C#Cc1ccc(C(=O)O)cc1)C(C)(C)CCC2(C)C [Compound 33, 4-(3,5,5,8,8-Pentamethyl-5,6,7,8-tetrahydronaphthalen-2-ylselanylethynyl)benzoic acid] | 3.33 (≈ 1.42 µg/mL)

Same assay, conditions: Table II, Example 1; mean of at least three tests; bacteriostatic effect; read-out: MIC RESULTS MEAN

Row | MIC [µM] | Structure (SMILES)
24 | 1.66 (≈ 0.652 µg/mL) | COc1ccc(C#Cc2cc(C(=O)O)cs2)cc1C12CC3CC(CC(C3)C1)C2 [Compound 7]
25 | 5.00 (≈ 2.38 µg/mL) | CC1(C)CCC(C)(C)c2cc(-c3cc(-c4ccc(C(=O)O)cc4)ccc3-c3cccc(O)c3)ccc21 [Compound 44, 3-Hydroxy-2′-(5,5,8,8-tetramethyl-5,6,7,8-tetrahydronaphthalen-2-yl) [1,1′,4′,1″]terphenyl-4″-carboxylic acid]
26 | 5.00 (≈ 2.41 µg/mL) | COc1ccc(-c2ccc3cc(C(=O)NCCN(C)C)ccc3c2)cc1C12CC3CC(CC(C3)C1)C2 [Compound 41, (2-Dimethylaminoethyl)amide of 6-(3-adamantan-1-yl-4-methoxyphenyl)naphthalene-2-carboxylic acid]
27 | 2.50 (≈ 1.23 µg/mL) | COc1cc2c(cc1-c1cc(-c3ccc(C(=O)O)cc3)ccc1-c1ccccc1)C(C)(C)CCC2(C)C [Compound 23, 2′-(3-Methoxy-5,5,8,8-tetramethyl-5,6,7,8-tetrahydronaphthalen-2-yl) [1,1′,4′,1″]terphenyl-4″-carboxylic acid]
28 | 3.33 (≈ 1.28 µg/mL) | OCc1ccc2cc(-c3ccc(O)c(C45CC6CC(CC(C6)C4)C5)c3)ccc2c1 [Compound 27, 6-[3-(1-Adamantyl)-4-hydroxyphenyl]-2-napthylmethanol]
29 | 5.00 (≈ 2.6 µg/mL) | COCOc1cc2c(cc1-c1cc(-c3ccc(C(=O)O)cc3)ccc1-c1ccccc1)C(C)(C)CCC2(C)C [Compound 43, 2′-(3-Methoxymethoxy-5,5,8,8-tetramethyl-5,6,7,8-tetrahydronaphthalen-2-yl) [1,1′,4′,1″]terphenyl-4″-carboxylic acid]

Row | Structure (SMILES) | MIC [µM]
30 | O=C(O)c1ccc(-c2ccc3cc(O)c(C45CC6CC(CC(C6)C4)C5)cc3c2)cc1 [Compound 16] | 2.50 (≈ 0.996 µg/mL)
31 | CC(CO)COc1ccc(C#Cc2ccc(C(=O)O)cc2)cc1C12CC3CC(CC(C3)C1)C2 (centres unmarked) [Compound 19, 4-[[3-(1-Adamantyl)-4-[(2-methyl-3-hydroxypropyloxy)phenyl]ethynyl]]benzoic acid] | 2.50 (≈ 1.11 µg/mL)
32 | CCCOc1ccc(-c2ccc3c(c2)C(C)(C)CCC3(C)C)cc1-c1ccc(C(=O)O)cc1 [Compound 38, 2′-Propoxy-5′-(5,5,8,8-tetramethyl-5,6,7,8-tetrahydronaphthalen-2-yl)bipheny-1-4-carboxylic acid] | 4.16 (≈ 1.84 µg/mL)

From patent US6858647B2, “Retinoid compounds suited for antibacterial applications” (Galderma Research & Development S.N.C., priority 2000, dated 2005)
